Bridge positions count the residues as written; N and C are the ends. Square brackets hold non-standard residues; d marks the D form. Peptide text beside a SMILES is read from it. * marks the point of attachment. ξ: configuration not given here. Hyp = O=C(O)[C@@H]1C[C@@H](O)CN1; ξW = NC(Cc1c[nH]c2ccccc12)C(=O)O; NMeNle = CCCC[C@H](NC)C(=O)O; X5 = Clc1ccc(C2CCN(*)CC2)cc1; NH(CH2)3NMe2 = CN(C)CCCN*; NMeA = CN[C@@H](C)C(=O)O; Piperidide = C1CCN(*)CC1; Pyrrolidide = C1CCN(*)C1; X4 = [N-]=[N+]=NCCCCCN*; Dap = NC[C@H](N)C(=O)O; NH(propargyl) = C#CCN*; X1 = CN(C)C1CCN(*)CC1; NHCH2CH2OMe = COCCN*; X13 = CS(=O)(=O)CCN*; X2 = c1cn(CCCN*)cn1; X6 = O=C1CN(*)CCN1; NHAllyl = C=CCN*
Biological target: T1, PD-1-Ig binding to PD-L1-TVMV-His (PD-L1-His) (Homo sapiens, UniProt Q9NZQ7)
T1 construct: hPDL1(19-239)-TVMV-His; TVMV protease cleavage site (C); made in house; host or cells: HEK293T
Test: PD-1/PD-L1 Homogenous Time-Resolved Fluorescence (HTRF) binding assay
Details: PD-1-Ig (20 nM)/PD-L1-His (10 nM), range classes
From the text: Methods for Testing the Ability of Macrocyclic Peptides to Compete for the Binding of PD-1 to PD-L1 Using Homogenous Time-Resolved Fluorescence (HTRF) Binding Assays
The ability of the macrocyclic peptides of the present disclosure to bind to PD-L1 was investigated using a PD-1/PD-L1 Homogenous Time-Resolved Fluorescence (HTRF) binding assay.
Homogenous Time-Resolved Fluorescence (HTRF) Assays of Binding of Soluble PD-1 to Soluble PD-L1. Soluble PD-1 and soluble PD-L1 refers to proteins with carboxyl-end truncations that remove the transmembrane-spanning regions and are fused to heterologous sequences, specifically the Fc portion of the human immunoglobuling G sequence (Ig) or the hexahistidine epitope tag (His). All binding studies were performed in an HTRF assay buffer consisting of dPBS supplemented with 0.1% (w/v) bovine serum albumin and 0.05% (v/v) Tween-20. For the PD-1-Ig/PD-L1-His binding assay, inhibitors were pre-incubated with PD-L1-His (10 nM final) for 15 m in 4 μl of assay buffer, followed by addition of PD-1-Ig (20 nM final) in 1 μl of assay buffer and further incubation for 15 m. PD-L1 fusion proteins from either human, cynomologous macaques, mouse, or other species were used. HTRF detection was achieved using europium crypate-labeled anti-Ig monoclonal antibody (1 nM final) and allophycocyanin (APC) labeled anti-His monoclonal antibody (20 nM final). Antibodies were diluted in HTRF detection buffer and 5 μl was dispensed on top of binding reaction. The reaction was allowed to equilibrate for 30 minutes and signal (665 nm/620 nm ratio) was obtained using an EnVision fluorometer. Additional binding assays were established between PD-1-Ig/PD-L2-His (20 and 5 nM, respectively), CD80-His/PD-L1-Ig (100 and 10 nM, respectively) and CD80-His/CTLA4-Ig (10 and 5 nM, respectively). Binding/competition studies between biotinylated Compound No. 71 and human PD-L1-His were performed as follows. Macrocyclic peptide inhibitors were pre-incubated with PD-L1-His (10 nM final) for 60 minutes in 4 μl of assay buffer followed by addition of biotinylated Compound No. 71 (0.5 nM final) in 1 μl of assay buffer. Binding was allowed to equilibrate for 30 minutes followed by addition of europium crypated labeled Streptavidin (2.5 pM final) and APC-labeled anti-His (20 nM final) in 5 μl of HTRF buffer. The reaction was allowed to equilibrate for 30 m and signal (665 nm/620 nm ratio) was obtained using an EnVision fluorometer.
Recombinant Proteins. Carboxyl-truncated human PD-1 (amino acids 25-167) with a C-terminal human Ig epitope tag [hPD-1 (25-167)-3S-IG] and human PD-L1 (amino acids 18-239) with a C-terminal His epitope tag [hPD-L1(19-239)-tobacco vein mottling virus protease cleavage site (TVMV)-His] were expressed in HEK293T cells and purified sequentially by recombinant Protein A affinity chromatography and size exclusion chromatography. Human PD-L2-His (Sino Biologicals), CD80-His (Sino Biologicals), CTLA4-Ig (RnD Systems) were all obtained through commercial sources.

T1 sequence (Q9NZQ7 with tags, fused parts or gaps): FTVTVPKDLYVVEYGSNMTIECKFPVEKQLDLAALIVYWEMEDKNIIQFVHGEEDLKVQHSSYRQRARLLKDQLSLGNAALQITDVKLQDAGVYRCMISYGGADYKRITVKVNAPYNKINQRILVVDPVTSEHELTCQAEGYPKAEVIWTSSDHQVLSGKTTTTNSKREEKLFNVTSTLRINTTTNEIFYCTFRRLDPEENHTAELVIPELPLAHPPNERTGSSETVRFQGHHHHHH

SMILES	IC50
CCCC[C@H]1C(=O)N(C)[C@@H](CCCC)C(=O)N[C@@H](CC(C)C)C(=O)N[C@H](C(=O)NCC(=O)NCCCCCN=[N+]=[N-])CSCC(=O)N[C@@H](Cc2ccc(O)cc2)C(=O)N(C)[C@@H](C)C(=O)N[C@@H](CC(N)=O)C(=O)N2CCC[C@H]2C(=O)N[C@@H](CO)C(=O)N[C@@H](CCC(N)=O)C(=O)N2C[C@H](O)C[C@H]2C(=O)N[C@@H](Cc2c[nH]c3ccccc23)C(=O)N[C@@H](CO)C(=O)N[C@@H](Cc2c[nH]c3ccccc23)C(=O)N1C [Example 13081] ({CH2CO}-Y[NMeA]NPSQ[Hyp]WSW[NMeNle][NMeNle]LCG-X4; thioether N-14)	10 to 60 nM
CCCC[C@H]1C(=O)N(C)[C@@H](CCCC)C(=O)N[C@@H](CC(C)C)C(=O)N[C@H](C(=O)NCC(=O)N2CCCCC2)CSCC(=O)N[C@@H](Cc2ccc(O)cc2)C(=O)N(C)[C@@H](C)C(=O)N[C@@H](CC(N)=O)C(=O)N2CCC[C@H]2C(=O)N[C@@H](CN)C(=O)N[C@@H](CC(C)C)C(=O)N2C[C@H](O)C[C@H]2C(=O)N[C@@H](Cc2c[nH]c3ccccc23)C(=O)NCC(=O)N[C@@H](Cc2c[nH]c3ccccc23)C(=O)N1C [Example 13086] ({CH2CO}-Y[NMeA]NP[Dap]L[Hyp]WGW[NMeNle][NMeNle]LCG-Piperidide; thioether N-14)	4 to 9.9 nM
CCCC[C@H]1C(=O)N(C)[C@@H](CCCC)C(=O)N[C@@H](CC(C)C)C(=O)N[C@H](C(=O)NCC(=O)N2CCC(c3ccc(Cl)cc3)CC2)CSCC(=O)N[C@@H](Cc2ccc(O)cc2)C(=O)N(C)[C@@H](C)C(=O)N[C@@H](CC(N)=O)C(=O)N2CCC[C@H]2C(=O)N[C@@H](CN)C(=O)N[C@@H](CC(C)C)C(=O)N2C[C@H](O)C[C@H]2C(=O)N[C@@H](Cc2c[nH]c3ccccc23)C(=O)NCC(=O)NC(Cc2c[nH]c3ccccc23)C(=O)N1C (stereo partly drawn) [Example 13115] ({CH2CO}-Y[NMeA]NP[Dap]L[Hyp]WG[ξW][NMeNle][NMeNle]LCG-X5; thioether N-14)	10 to 60 nM
CCCC[C@H]1C(=O)N(C)[C@@H](CCCC)C(=O)N[C@@H](CC(C)C)C(=O)N[C@H](C(=O)NCC(=O)N2CCNC(=O)C2)CSCC(=O)N[C@@H](Cc2ccc(O)cc2)C(=O)N(C)[C@@H](C)C(=O)N[C@@H](CC(N)=O)C(=O)N2CCC[C@H]2C(=O)N[C@@H](CN)C(=O)N[C@@H](CC(C)C)C(=O)N2C[C@H](O)C[C@H]2C(=O)N[C@@H](Cc2c[nH]c3ccccc23)C(=O)NCC(=O)NC(Cc2c[nH]c3ccccc23)C(=O)N1C (stereo partly drawn) [Example 13114] ({CH2CO}-Y[NMeA]NP[Dap]L[Hyp]WG[ξW][NMeNle][NMeNle]LCG-X6; thioether N-14)	4 to 9.9 nM
CCCC[C@H]1C(=O)N(C)[C@@H](CCCC)C(=O)N[C@@H](CC(C)C)C(=O)N[C@H](C(=O)NCC(=O)N2CCCC2)CSCC(=O)N[C@@H](Cc2ccc(O)cc2)C(=O)N(C)[C@@H](C)C(=O)N[C@@H](CC(N)=O)C(=O)N2CCC[C@H]2C(=O)N[C@@H](CN)C(=O)N[C@@H](CC(C)C)C(=O)N2C[C@H](O)C[C@H]2C(=O)N[C@@H](Cc2c[nH]c3ccccc23)C(=O)NCC(=O)N[C@@H](Cc2c[nH]c3ccccc23)C(=O)N1C [Example 13085] ({CH2CO}-Y[NMeA]NP[Dap]L[Hyp]WGW[NMeNle][NMeNle]LCG-Pyrrolidide; thioether N-14)	10 to 60 nM
CCCC[C@H]1C(=O)N(C)[C@@H](CCCC)C(=O)N[C@@H](CC(C)C)C(=O)N[C@H](C(=O)NCC(=O)N2CCC(N(C)C)CC2)CSCC(=O)N[C@@H](Cc2ccc(O)cc2)C(=O)N(C)[C@@H](C)C(=O)N[C@@H](CC(N)=O)C(=O)N2CCC[C@H]2C(=O)N[C@@H](CN)C(=O)N[C@@H](CC(C)C)C(=O)N2C[C@H](O)C[C@H]2C(=O)N[C@@H](Cc2c[nH]c3ccccc23)C(=O)NCC(=O)NC(Cc2c[nH]c3ccccc23)C(=O)N1C (stereo partly drawn) [Example 13103] ({CH2CO}-Y[NMeA]NP[Dap]L[Hyp]WG[ξW][NMeNle][NMeNle]LCG-X1; thioether N-14)	10 to 60 nM

Second part, the molecule after the results:

IC50	SMILES
10 to 60 nM	C#CCNC(=O)CNC(=O)[C@@H]1CSCC(=O)N[C@@H](Cc2ccc(O)cc2)C(=O)N(C)[C@@H](C)C(=O)N[C@@H](CC(N)=O)C(=O)N2CCC[C@H]2C(=O)N[C@@H](CN)C(=O)N[C@@H](CC(C)C)C(=O)N2C[C@H](O)C[C@H]2C(=O)N[C@@H](Cc2c[nH]c3ccccc23)C(=O)NCC(=O)NC(Cc2c[nH]c3ccccc23)C(=O)N(C)[C@@H](CCCC)C(=O)N(C)[C@@H](CCCC)C(=O)N[C@@H](CC(C)C)C(=O)N1 (stereo partly drawn) [Example 13096] ({CH2CO}-Y[NMeA]NP[Dap]L[Hyp]WG[ξW][NMeNle][NMeNle]LCG-{NH(propargyl)}; thioether N-14)
10 to 60 nM	CCCC[C@H]1C(=O)N(C)[C@@H](CCCC)C(=O)N[C@@H](CC(C)C)C(=O)N[C@H](C(=O)NCC(=O)NCCS(C)(=O)=O)CSCC(=O)N[C@@H](Cc2ccc(O)cc2)C(=O)N(C)[C@@H](C)C(=O)N[C@@H](CC(N)=O)C(=O)N2CCC[C@H]2C(=O)N[C@@H](CN)C(=O)N[C@@H](CC(C)C)C(=O)N2C[C@H](O)C[C@H]2C(=O)N[C@@H](Cc2c[nH]c3ccccc23)C(=O)NCC(=O)NC(Cc2c[nH]c3ccccc23)C(=O)N1C (stereo partly drawn) [Example 13116] ({CH2CO}-Y[NMeA]NP[Dap]L[Hyp]WG[ξW][NMeNle][NMeNle]LCG-X13; thioether N-14)
10 to 60 nM	CCCC[C@H]1C(=O)N(C)[C@@H](CCCC)C(=O)N[C@@H](CC(C)C)C(=O)N[C@H](C(=O)NCC(=O)NCCOC)CSCC(=O)N[C@@H](Cc2ccc(O)cc2)C(=O)N(C)[C@@H](C)C(=O)N[C@@H](CC(N)=O)C(=O)N2CCC[C@H]2C(=O)N[C@@H](CN)C(=O)N[C@@H](CC(C)C)C(=O)N2C[C@H](O)C[C@H]2C(=O)N[C@@H](Cc2c[nH]c3ccccc23)C(=O)NCC(=O)N[C@@H](Cc2c[nH]c3ccccc23)C(=O)N1C [Example 13082] ({CH2CO}-Y[NMeA]NP[Dap]L[Hyp]WGW[NMeNle][NMeNle]LCG-NHCH2CH2OMe; thioether N-14)
10 to 60 nM	CCCC[C@H]1C(=O)N(C)[C@@H](CCCC)C(=O)N[C@@H](CC(C)C)C(=O)N[C@H](C(=O)NCC(=O)NCCCn2ccnc2)CSCC(=O)N[C@@H](Cc2ccc(O)cc2)C(=O)N(C)[C@@H](C)C(=O)N[C@@H](CC(N)=O)C(=O)N2CCC[C@H]2C(=O)N[C@@H](CN)C(=O)N[C@@H](CC(C)C)C(=O)N2C[C@H](O)C[C@H]2C(=O)N[C@@H](Cc2c[nH]c3ccccc23)C(=O)NCC(=O)NC(Cc2c[nH]c3ccccc23)C(=O)N1C (stereo partly drawn) [Example 13099] ({CH2CO}-Y[NMeA]NP[Dap]L[Hyp]WG[ξW][NMeNle][NMeNle]LCG-X2; thioether N-14)
10 to 60 nM	C=CCNC(=O)CNC(=O)[C@@H]1CSCC(=O)N[C@@H](Cc2ccc(O)cc2)C(=O)N(C)[C@@H](C)C(=O)N[C@@H](CC(N)=O)C(=O)N2CCC[C@H]2C(=O)N[C@@H](CN)C(=O)N[C@@H](CC(C)C)C(=O)N2C[C@H](O)C[C@H]2C(=O)N[C@@H](Cc2c[nH]c3ccccc23)C(=O)NCC(=O)NC(Cc2c[nH]c3ccccc23)C(=O)N(C)[C@@H](CCCC)C(=O)N(C)[C@@H](CCCC)C(=O)N[C@@H](CC(C)C)C(=O)N1 (stereo partly drawn) [Example 13097] ({CH2CO}-Y[NMeA]NP[Dap]L[Hyp]WG[ξW][NMeNle][NMeNle]LCG-NHAllyl; thioether N-14)
10 to 60 nM	CCCC[C@H]1C(=O)N(C)[C@@H](CCCC)C(=O)N[C@@H](CC(C)C)C(=O)N[C@H](C(=O)NCC(=O)NCCCN(C)C)CSCC(=O)N[C@@H](Cc2ccc(O)cc2)C(=O)N(C)[C@@H](C)C(=O)N[C@@H](CC(N)=O)C(=O)N2CCC[C@H]2C(=O)N[C@@H](CN)C(=O)N[C@@H](CC(C)C)C(=O)N2C[C@H](O)C[C@H]2C(=O)N[C@@H](Cc2c[nH]c3ccccc23)C(=O)NCC(=O)NC(Cc2c[nH]c3ccccc23)C(=O)N1C (stereo partly drawn) [Example 13098] ({CH2CO}-Y[NMeA]NP[Dap]L[Hyp]WG[ξW][NMeNle][NMeNle]LCG-{NH(CH2)3NMe2}; thioether N-14)
